Literature values in patent publication US20070196518A1, “Composition and Method for Mitigating a Negative Effect of Alcohol Consumption” (priority 2005, published 2007).

Details: on average, in subjects who consumed alcohol

## Cc1ncc(CO)c(CO)c1O [Vitamin B6, Pyridoxine]
  decrease in the number of hangover symptoms: 50%
